Results from PubChem BioAssay (NCI).
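These data come from cells grown in 96-well plates and exposed to compound for 48 hours at five concentrations. TGI marks complete inhibition of growth.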

Legend:
Assay in all cases: DTP human tumour cell line panel, 48 h
[1] = system: HOP-92 NSCLC
[2] = system: SK-MEL-28 melanoma
[3] = system: M14 melanoma
[4] = system: SN12C renal
[5] = system: OVCAR-4 ovarian
[6] = system: HT29 colon
[7] = system: HCC-2998 colon
[8] = system: RPMI-8226 leukemia
[9] = system: CAKI-1 renal
[10] = system: 786-0 renal
[11] = system: SF-295 CNS
[12] = system: SK-OV-3 ovarian
[13] = system: HL-60(TB) leukemia
[14] = system: NCI-H460 lung
[15] = system: CCRF-CEM leukemia
[16] = system: DMS 273 small cell lung
[17] = system: HOP-62 NSCLC
[18] = system: K-562 leukemia
[19] = system: SR leukemia
[20] = system: UACC-62 melanoma
[21] = system: SW-620 colon
[22] = system: XF 498 CNS
[23] = system: A549 NSCLC
[24] = system: OVCAR-5 ovarian
[25] = system: SF-539 CNS
[26] = system: SK-MEL-2 melanoma
[27] = system: KM20L2 colon
[28] = system: ACHN renal
[29] = system: SNB-75 CNS
[30] = system: UO-31 renal
[31] = system: DLD-1 colon
[32] = system: MOLT-4 leukemia
[33] = system: HOP-18 NSCLC
[34] = system: SK-MEL-5 melanoma
[35] = system: OVCAR-8 ovarian
[36] = system: LOX IMVI melanoma
[37] = system: LXFL 529 NSCLC
[38] = system: TK-10 renal
[39] = system: RXF-631 renal
[40] = system: KM12 colon
[41] = system: NCI-H23 lung
[42] = system: EKVX NSCLC
[43] = system: U251 CNS
[44] = system: IGROV1 ovarian
[45] = system: HCT-116 colon
[46] = system: COLO 205 colon
[47] = system: OVCAR-3 ovarian
[48] = system: HCT-15 colon
[49] = system: NCI-H226 lung
[50] = system: NCI-H522 lung
[51] = system: SNB-19 CNS
[52] = system: MALME-3M melanoma
[53] = system: M19-MEL melanoma
[54] = system: UACC-257 melanoma
[55] = system: A498 renal
[56] = system: RXF 393 renal
[57] = system: SNB-78 CNS
[58] = system: DMS 114 small cell lung
[59] = system: SF-268 CNS

Measured: TGI

C=CCC1C(=O)CC2(C)C(CC=C)C(=O)CC12C (centres undefined)
not listed: [55] | [56] | [57] | [58] | [59]
> 100 µM: all other assays above

C=C1C(C(=O)O)C1C(=O)O (centres undefined)
not listed: [37] | [39] | [46] | [47]
> 100 µM: all other assays above
